US11447511B2, “Dioxolane analogues of uridine for the treatment of cancer” (MEDIVIR AB, priority 2014, dated 2022)

Assays:
[1] = tested on: HBV in Hep G2.2.15 cells; settings: cited from earlier work
[2] = tested on: HIV; settings: relative to 3TC; cited from earlier work
[3] = Cell cytotoxicity assay, HEP3B; assay type: cell-based; settings: human, HEP3B cells
Method: (§1) Cells were seeded 24 hours prior to compound addition. Each test compound (serially diluted from 100 μM) was added to Huh7 (1.5×10^4 cells/well) or HepG2 (1.5×10^4 cells/well), and allowed to incubate for 5 days at 37° C. A medium only control was used to determine the minimum absorbance value and an untreated cell value. At the end of the growth period, XTT dye from Polysciences Europe GmbH was added to each well. The absorbance at 450 nm with a reference wavelength of 600 nm was read with a Sunrise (Tecan) using the medium only control wells as blanks. The 50% inhibition value (CC50) was determined by comparing the degree of inhibition (compared to cell control) plotted against compound concentration. Results from the dilution series were fitted to a sigmoidal dose-response curve.
(§2) Compounds of the invention were evaluated in these assays to assess the stability in human intestinal S9 fraction (HIS9) and human liver S9 fraction (HLS9), and for Cell Cytotoxicity in HUH7, HEP3B and HEPG2 cells.

[4] = Cell cytotoxicity assay, HUH7; assay type: cell-based; settings: human; Huh7 cells, 5 days at 37° C., XTT dye
Method: as §1, §2

[5] = Cell cytotoxicity assay, HEPG2; assay type: cell-based; settings: human; HepG2 cells, 5 days at 37° C., XTT dye
Method: as §1, §2

[6] = Stability in human liver S9 fraction (HLS9); assay type: in vitro ADME; settings: liver S9 fraction, pH 7.4; human liver S9 0.4 mg protein/mL, 5 μM test compound, 37° C.
Method: (§3) Stability in Human Intestinal S9 Fraction (HIS9) and in Human Liver S9 Fraction (HLS9),
(§4) Stock solutions of each test compound (10 mM) were prepared in DMSO and stored at −20° C. Prior to the start of the experiment, the test compounds were diluted to 500 μM in 50% acetonitrile in water. The reaction mixture was prepared in a total volume of 250 μL containing 5 mM MgC2, 1 mM NADPH and 5 μM test compound in 50 mM potassium phosphate buffer (pH 7.4). The reaction was initiated by addition of human liver or intestinal S9 fraction with a final concentration of 0.4 mg protein/mL (Xeno Tech). The reaction mixture was incubated on an orbital shaker at 37° C. At the desired time points (0, 10, 30 and 60 minutes) aliquots of 50 μL were taken and the reaction was stopped by mixing with 150 μL acetonitrile containing internal standard. Standard solutions of each test compound were prepared from the 500 μM solution by diluting the solution to a final concentration of 5 μM in boiled human S9 (0.4 mg protein/mL), 5 mM MgCl2 and 50 mM potassium phosphate buffer (pH 7.4). The standards and samples were kept on ice for 30 min then centrifuged at 3 000 g for 20 minutes at 10° C., there after 10 μL of supernatant was mixed with 200 μL 50% acetonitrile in water. 0.5 μM of each test compound in 50% acetonitrile in water was injected into the LC/MS-MS to determine the daughter ion, declustring potential (DP), collision energy (CE) and collision cell exit potential (CXP) in order to develop a LC/MS-MS method. The compounds were separated using a C18 column with a QTRAP5500 system. The mobile phase consisted of solvent A (98% water, 2% acetonitrile, 0.1% acetic acid or 10 mM ammonium acetate) and solvent B (80% acetonitrile, 20% water, 0.1% acetic acid or 10 mM ammonium acetate). Elution of the compounds was performed by using a gradient of solvent B from 0% to 100%. 5 μL of standard points and samples were injected for analysis with QTRAP5500.
(§5) The amount of parent compound was determined on the basis of the peak area for each time point compared to standard which was set to 5 μM. Intrinsic clearance (CLint) and half-life (t1/2) were determined from the disappearance curves of the test compound using Excel software.

[7] = Stability in human intestinal S9 fraction (HIS9); assay type: in vitro ADME; settings: human intestinal S9 0.4 mg protein/mL, 5 μM test compound, 37° C.; for microsomal CLint at 5 μM: intestinal S9 fraction, pH 7.4
Method: as §3, §4, §5

Row | Compound | effectiveness against HBV compared with parent nucleoside 3TC [1] | fold less active against HIV than parent nucleoside 3TC [2] | CC50 at 5 days [3] | CC50 at 5 days [4] | CC50 at 5 days [5] | microsomal CLint at 5 μM [6] | CLint Intestinal S9 [7] | microsomal CLint at 5 μM [7]
1 | COC(=O)C(C)NP(=O)(OC[C@@H]1O[C@H](n2ccc(N)nc2=O)CS1)Oc1ccccc1 (some centres unmarked) [CF 1109] | virtually equally effective | ~250 fold |  |  |  |  |  | 
2 | Nc1ccn([C@@H]2CO[C@H](CO)O2)c(=O)n1 [Troxacitabine, 4-amino-1-((2S,4S)-2-(hydroxymethyl)-1,3-dioxolan-4-yl)pyrimidin-2(1H)-one, reference compound] |  |  | 0.279 µM | 0.646 µM | 0.218 µM |  |  | 
3 | COC(=O)[C@H](C)NP(=O)(OC[C@H]1OC[C@@H](n2ccc(N)nc2=O)O1)Oc1ccc(Br)cc1 (single isomer, unassigned) [27 dia-2] |  |  | 0.348 µM | 1.02 µM | 0.223 µM | 57 µL/min/mg | 6 µL/min/mg | 
4 | CCC[C@H](C)OC(=O)[C@H](C)NP(=O)(OC[C@H]1OC[C@@H](n2cc(F)c(N)nc2=O)O1)Oc1cccc(C2CC2)c1 (single isomer, unassigned) [29 dia-2] |  |  | 0.075 µM | 0.495 µM |  | 36 µL/min/mg |  | 18 µL/min/mg
5 | COC(=O)[C@H](C)NP(=O)(OC[C@H]1OC[C@@H](n2ccc(N)nc2=O)O1)Oc1ccc(C2CC2)cc1 (single isomer, unassigned) [34 dia-2] |  |  | 0.21 µM | 0.524 µM | 0.236 µM | 64 µL/min/mg | 6 µL/min/mg | 
6 | COC(=O)[C@H](Cc1ccccc1)NP(=O)(OC[C@H]1OC[C@@H](n2ccc(N)nc2=O)O1)Oc1ccccc1 (single isomer, unassigned) [28 dia-2] |  |  |  | 15.6 µM | 2.72 µM | 20 µL/min/mg |  | 40 µL/min/mg
